The record followed here is ChEMBL document CHEMBL4130634, “Discovery of Reversible DNA Methyltransferase and Lysine Methyltransferase G9a Inhibitors with Antitumoral in Vivo Efficacy” (J Med Chem, 2018).

Data set [1] is described as follows: AUC (0 to 24 hrs) in RARG2-/-gammac-/- Balb/c mouse at 5 mg/kg, ip administered as single dose by LC-MS/MS analysis. The class given is ADME, organism-based. Further details: time < 24 hr, dose 5 mg/kg, route intraperitoneal. To be noted: in vivo.
Data set [2] has as its target DNA (cytosine-5)-methyltransferase 1 (Homo sapiens, UniProt P26358). The data set can be described thus: Inhibition of human DNMT1 using polydeoxyinosine polydeoxycytosine DNA as substrate after 15 mins in presence of SAM by TR-FRET assay. (In TR-FRET formats the signal depends on donor and acceptor labels being close together.)
Data set [3] can be described thus: Metabolic stability in mouse liver microsomes assessed as parent compound remaining at 1 uM preincubated for 10 mins followed by NADP addition after 20 mins by LC-MS/MS analysis. The class given is ADME, microsome. The settings on record: read-out: Stability. A general note: Liver microsomes are vesicles of endoplasmic reticulum, rich in cytochrome P450 enzymes.

The nature of data set [4]: Half life in mouse liver microsomes at 1 uM preincubated for 10 mins followed by NADP addition after 20 mins by LC-MS/MS analysis. In kind it is ADME, microsome.
Data set [5] in a line: Metabolic stability in human liver microsomes assessed as parent compound remaining at 1 uM preincubated for 10 mins followed by NADP addition after 20 mins by LC-MS/MS analysis. The class given is ADME, microsome.
Data set [6] deals with THLE-2. Description: Growth inhibition of human THLE2 cells after 72 hrs by MTS assay. To be noted: thle-2, 72 h. In kind it is cell-based. A general note: Formazan colour is commonly taken as a measure of viable cells.
Data set [7] concerns MV4-11. Description: Antitumor activity against human MV4-11 cells xenografted in RARG2-/-gammac-/- Balb/c mouse assessed as tumor growth inhibition at […], iv for 21 consecutive days starting from day 1 post tumor inoculation measured on day 23 relative to control. The class given is functional. The settings on record: MV4-11, iv, read-out: TGI.
The test system of data set [8] is MV4-11. The data set can be described thus: Growth inhibition of human MV4-11 cells after 48 hrs by MTS assay. In kind it is functional. To be noted: MV4-11, 48 h.
A short description of data set [9]: Half life in human liver microsomes at 1 uM preincubated for 10 mins followed by NADP addition after 20 mins by LC-MS/MS analysis. The class given is ADME, microsome.
Data set [10] in a line: Growth inhibition of human LAL-CUN-2 cells after 48 hrs by MTS assay. The class given is functional.
Data set [11] is described as follows: (§1) AUC (0 to 24 hrs) in RARG2-/-gammac-/- Balb/c mouse at […], iv administered as single dose by LC-MS/MS analysis. Further details: time < 24 hr, dose 2.5 mg/kg, route intravenous. The class given is ADME, organism-based. To be noted: in vivo.
In data set [12] the test system is MV4-11. Description: Antitumor activity against human MV4-11 cells xenografted in SCID-beige mouse assessed as tumor growth inhibition at 30 mg/kg/day via osmotic pump for 2 weeks relative to control. In kind it is functional. To be noted: MV4-11, 336 h, read-out: TGI.
Data set [13] can be described thus: Volume of distribution at steady state in RARG2-/-gammac-/- Balb/c mouse at […], iv administered as single dose by LC-MS/MS analysis. The class given is ADME, organism-based. To be noted: in vivo, read-out: Vdss.
Data set [14] is described as follows: Clearance in RARG2-/-gammac-/- Balb/c mouse at […], iv administered as single dose by LC-MS/MS analysis. To be noted: in vivo. In kind it is ADME, organism-based.
A short description of data set [15]: Half life in RARG2-/-gammac-/- Balb/c mouse at […], iv administered as single dose by LC-MS/MS analysis. The class given is ADME, organism-based. To be noted: in vivo.
The nature of data set [16]: as §1. In kind it is ADME, organism-based. Set-up: dose 1.9 mg/kg, time < 24 hr, route intravenous. To be noted: in vivo.
Data set [17] addresses T1, Histone-lysine N-methyltransferase EHMT2 (Homo sapiens, UniProt Q96KQ7).
T1 sequence (Q96KQ7 whole entry): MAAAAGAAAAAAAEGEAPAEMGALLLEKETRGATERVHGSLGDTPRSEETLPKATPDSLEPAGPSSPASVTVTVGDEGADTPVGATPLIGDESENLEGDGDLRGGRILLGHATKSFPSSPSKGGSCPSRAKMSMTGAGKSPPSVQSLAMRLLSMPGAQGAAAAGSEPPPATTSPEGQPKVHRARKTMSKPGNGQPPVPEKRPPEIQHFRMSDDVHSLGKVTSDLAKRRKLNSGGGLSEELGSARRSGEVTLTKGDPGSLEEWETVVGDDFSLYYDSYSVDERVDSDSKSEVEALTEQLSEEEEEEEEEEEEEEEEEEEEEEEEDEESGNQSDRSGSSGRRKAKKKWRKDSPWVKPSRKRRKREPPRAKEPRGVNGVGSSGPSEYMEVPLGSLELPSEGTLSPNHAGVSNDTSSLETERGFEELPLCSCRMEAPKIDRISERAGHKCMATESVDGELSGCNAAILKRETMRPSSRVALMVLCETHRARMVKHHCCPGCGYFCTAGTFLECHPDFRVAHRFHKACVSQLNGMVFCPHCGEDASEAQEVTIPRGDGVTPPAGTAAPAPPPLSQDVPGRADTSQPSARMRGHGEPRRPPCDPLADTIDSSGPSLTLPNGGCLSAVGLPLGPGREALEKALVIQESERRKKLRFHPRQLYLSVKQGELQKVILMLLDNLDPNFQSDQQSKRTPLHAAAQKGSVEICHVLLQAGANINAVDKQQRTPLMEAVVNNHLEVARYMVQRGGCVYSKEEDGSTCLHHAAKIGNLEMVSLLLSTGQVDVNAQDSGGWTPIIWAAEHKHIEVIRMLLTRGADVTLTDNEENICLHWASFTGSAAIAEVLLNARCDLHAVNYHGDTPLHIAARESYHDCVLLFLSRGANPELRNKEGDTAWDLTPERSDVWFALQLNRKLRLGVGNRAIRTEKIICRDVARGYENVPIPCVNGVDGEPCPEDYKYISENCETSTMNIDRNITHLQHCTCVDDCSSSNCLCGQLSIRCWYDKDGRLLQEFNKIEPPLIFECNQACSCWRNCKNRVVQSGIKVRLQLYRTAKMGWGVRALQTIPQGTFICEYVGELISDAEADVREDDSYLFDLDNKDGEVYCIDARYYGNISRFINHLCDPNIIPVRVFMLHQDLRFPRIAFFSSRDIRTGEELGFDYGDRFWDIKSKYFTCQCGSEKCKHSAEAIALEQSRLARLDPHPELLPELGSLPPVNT
The data set can be described thus: Inhibition of G9a (unknown origin).

For data set [18], the target named is T1, Histone-lysine N-methyltransferase EHMT2. The data set can be described thus: Inhibition of human G9a using biotinylated-H3K9 peptide as substrate after 1 hr in presence of SAM by TR-FRET assay.

Sequence of DNA (cytosine-5)-methyltransferase 1 (P26358 whole entry): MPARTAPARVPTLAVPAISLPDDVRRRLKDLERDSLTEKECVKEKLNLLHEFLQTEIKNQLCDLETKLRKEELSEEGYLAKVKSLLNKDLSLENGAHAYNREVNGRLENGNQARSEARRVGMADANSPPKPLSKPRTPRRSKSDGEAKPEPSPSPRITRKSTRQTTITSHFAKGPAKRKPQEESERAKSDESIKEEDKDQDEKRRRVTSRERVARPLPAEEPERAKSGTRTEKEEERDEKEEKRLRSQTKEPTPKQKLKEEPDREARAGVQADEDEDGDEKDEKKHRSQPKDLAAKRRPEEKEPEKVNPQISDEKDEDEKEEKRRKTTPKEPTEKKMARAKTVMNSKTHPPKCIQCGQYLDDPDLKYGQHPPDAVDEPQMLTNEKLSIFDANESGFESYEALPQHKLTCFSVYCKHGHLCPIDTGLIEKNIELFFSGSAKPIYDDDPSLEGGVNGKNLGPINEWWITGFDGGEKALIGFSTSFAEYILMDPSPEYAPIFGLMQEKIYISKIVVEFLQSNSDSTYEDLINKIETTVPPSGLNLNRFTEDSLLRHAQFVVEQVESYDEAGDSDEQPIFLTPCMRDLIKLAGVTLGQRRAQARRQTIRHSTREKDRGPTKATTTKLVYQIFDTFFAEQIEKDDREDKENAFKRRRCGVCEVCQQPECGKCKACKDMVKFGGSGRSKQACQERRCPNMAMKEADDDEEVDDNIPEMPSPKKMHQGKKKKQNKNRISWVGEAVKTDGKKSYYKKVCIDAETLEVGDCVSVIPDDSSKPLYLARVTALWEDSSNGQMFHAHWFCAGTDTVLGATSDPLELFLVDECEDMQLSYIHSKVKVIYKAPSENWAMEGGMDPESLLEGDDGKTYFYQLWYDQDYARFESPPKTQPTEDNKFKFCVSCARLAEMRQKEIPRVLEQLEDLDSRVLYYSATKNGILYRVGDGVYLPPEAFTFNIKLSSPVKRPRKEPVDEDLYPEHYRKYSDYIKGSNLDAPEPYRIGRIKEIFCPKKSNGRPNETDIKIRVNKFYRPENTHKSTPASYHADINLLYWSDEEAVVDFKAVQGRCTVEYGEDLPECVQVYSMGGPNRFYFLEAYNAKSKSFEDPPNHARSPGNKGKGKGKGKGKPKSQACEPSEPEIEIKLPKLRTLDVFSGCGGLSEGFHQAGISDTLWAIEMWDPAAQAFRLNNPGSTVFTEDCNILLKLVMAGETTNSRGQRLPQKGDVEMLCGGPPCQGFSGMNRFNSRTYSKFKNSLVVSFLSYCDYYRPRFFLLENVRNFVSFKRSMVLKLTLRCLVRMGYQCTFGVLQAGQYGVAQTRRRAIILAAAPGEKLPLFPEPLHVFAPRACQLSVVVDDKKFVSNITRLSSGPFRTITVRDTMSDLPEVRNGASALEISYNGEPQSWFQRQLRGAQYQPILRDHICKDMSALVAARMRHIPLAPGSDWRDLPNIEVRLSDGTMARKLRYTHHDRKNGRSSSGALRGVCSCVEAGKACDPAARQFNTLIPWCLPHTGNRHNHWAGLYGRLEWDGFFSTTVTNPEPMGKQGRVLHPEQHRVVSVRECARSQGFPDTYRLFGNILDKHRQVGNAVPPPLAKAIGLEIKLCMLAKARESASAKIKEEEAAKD

In general, AUC(0-t) refers to the area under the concentration-time curve up to a stated or last time point. A low value points to less exposure. A word on the IC50: it is the concentration that gives 50% inhibition. For the molecule `COc1cc2c(NC3CCN(C(C)C)CC3)nc(N3CCC(F)(F)CC3)nc2cc1OCCCN1CCCC1`, the exposure AUC(0-t) at 24 h in data set [1] stood at 2.31 µM·h. Further, the 50% inhibitory concentration (IC50) in [2] is greater than 50 µM.
Usually half-life stands for how long it takes for the measured level to halve. A word on the LC50: it is the concentration that kills 50% of the test population. Read a low LC50 as greater toxicity. The term GI50 denotes the concentration that inhibits growth by half. Low values mean more potent growth inhibition, high ones less potent growth inhibition. As to `COc1cc2c(NC3CCN(C)CC3)cc(-c3ccc(C)o3)nc2cc1OCCCN1CCCC1`, the remaining at 20 min, 1 µM is 70.9% in [3] and 99.7% in data set [5] (liver microsomes, read-out: Stability). The half-life at 1 µM in [4] was 0.6 h; in data set [9] (liver microsomes), greater than 2.4 h. In data set [6], this molecule registered an LC50 of 1.78 µM. The inhibition in vivo at […] in data set [7] stood at 70%. Moreover, the concentration for 50% growth inhibition (GI50) in data set [8] was found to be 0.269 µM; in data set [10] it was 0.664 µM. In data set [11], the area under the curve AUC(0-t) at 24 h came to 1.49 µM·h.
For the molecule `COc1cc2c(cc1OCCCN1CCCC1)N=C(N)C21CCC1`, the inhibition in vivo at 30 mg/kg/day in data set [12] came to 45%.
The clearance is the volume of plasma or blood freed of the substance per unit of time. In the case of `CCc1ccc(-c2cc(NC3CCN(C)CC3)c3cc(OC)c(OCCCN4CCCC4)cc3n2)o1`, the remaining at 20 min, 1 µM in [3] worked out at 16.9%. In [13], the Vd is 88.5 L/kg. Also, the half-life at 1 µM in data set [4] was 0.2 h. Besides, the Stability in data set [5] (microsomes, 20 min, 1 µM) came out at 67.1%. This molecule had a clearance in data set [14] of 98.3 mL/min/kg. In [15], this molecule showed a half-life of 13.2 h. This molecule also registered a t1/2 in data set [9] (microsomes, 20 min, 1 µM) of 1.6 h. In data set [10], this molecule had a 50% growth inhibitory concentration (GI50) of 0.577 µM. In data set [16], this molecule gave an AUC(0-t) at 24 h of 0.505 µM·h.
With `Cc1cc(Nc2ccc(NC(=O)c3ccc(Nc4ccnc5ccccc45)cc3)cc2)nc(N)n1`, the IC50 in data set [17] is 59 µM; in data set [18] it was greater than 10 µM.
